Tests used:
HOP-92 = test: In vitro total growth inhibition against non-small-cell lung cancer HOP-92 cell lines was reported.; conditions: Homo sapiens, read-out: Log TGI (converted)
SK-OV-3 = test: In vitro growth inhibition against ovarian cancer SK-OV-3 cell line was reported.; assay type: functional; conditions: Homo sapiens
MDA-MB-435 [1] = test: In vitro growth inhibition against breast cancer MDA-MB-435 cell line was reported.; conditions: Homo sapiens
CCRF-CEM [2] = test: In vitro total growth inhibition against leukemia CCRF cell lines was reported.; assay type: functional; conditions: Homo sapiens, read-out: Log TGI (converted)
HCT-116 [3] = test: In vitro growth inhibition against colon cancer HCT116 cell line was reported.; assay type: functional; conditions: Homo sapiens
HCC 2998 [4] = test: In vitro growth inhibition against colon cancer HCC2998 cell line was reported.; assay type: functional; conditions: Homo sapiens
SF-295 [5] = test: In vitro total growth inhibition against CNS cancer SF-295 cell lines was reported.; assay type: functional; conditions: Homo sapiens, read-out: Log TGI (converted)
DU-145 [6] = test: In vitro growth inhibition against prostate cancer […] cell line was reported.; assay type: functional; conditions: Homo sapiens
MOLT-4 = test: In vitro total growth inhibition against leukemia MOLT-4 cell lines was reported.; assay type: functional; conditions: Homo sapiens, read-out: Log TGI (converted)
IGROV-1 = test: In vitro total growth inhibition against ovarian cancer IGROV1 cell lines was reported.; assay type: functional; conditions: Homo sapiens, read-out: Log TGI (converted)
HT-29 = test: In vitro growth inhibition against colon cancer HT-29 cell line was reported.; assay type: functional; conditions: Homo sapiens
COLO 205 = test: Log of molar concentration leading to 50% cell death against colon cancer COLO 205 cell line was reported; assay type: functional; conditions: Homo sapiens, read-out: Log LC50 (the source's name) (converted)
OVCAR-3 = test: In vitro total growth inhibition against ovarian cancer OVCAR-3 cell lines was reported.; assay type: functional; conditions: Homo sapiens, read-out: Log TGI (converted)
DU-145 [7] = test: In vitro total growth inhibition against prostate cancer […] cell lines was reported.; assay type: functional; conditions: Homo sapiens, read-out: Log TGI (converted)
EKVX = test: Log of molar concentration leading to 50% cell death against non-small-cell lung cancer EKVX cell line was reported; assay type: functional; conditions: Homo sapiens, read-out: Log LC50 (the source's name) (converted)
RPMI-8226 = test: Log of molar concentration leading to 50% cell death against leukemia […] cell line was reported; assay type: functional; conditions: Homo sapiens, read-out: Log LC50 (the source's name) (converted)
KM12 = test: In vitro growth inhibition against colon cancer KM12 cell line was reported.; assay type: functional; conditions: Homo sapiens
UACC-62 [8] = test: In vitro total growth inhibition against melanoma UACC-62 cell lines was reported.; assay type: functional; conditions: Homo sapiens, read-out: Log TGI (converted)
Tumor Cell line = test: Log of molar concentration leading to 50% cell death was reported; assay type: functional; conditions: Homo sapiens, read-out: Log LC50 (the source's name) (converted)
BT-549 [9] = test: In vitro growth inhibition against breast cancer BT 549 cell line was reported.; assay type: functional; conditions: Homo sapiens
SF-295 [10] = test: In vitro growth inhibition against CNS cancer SF-295 cell line was reported.; assay type: functional; conditions: Homo sapiens
CAKI-1 [11] = test: In vitro growth inhibition against renal cancer CAKI-1 cell line was reported.; assay type: functional; conditions: Homo sapiens
ACHN [12] = test: In vitro total growth inhibition against renal cancer ACHN cell lines was reported.; assay type: functional; conditions: Homo sapiens, read-out: Log TGI (converted)
NCI-H46 [13] = test: Log of molar concentration leading to 50% cell death against non-small-cell lung cancer […] cell line was reported; assay type: functional; conditions: Homo sapiens, read-out: Log LC50 (the source's name) (converted)
MCF7 = test: In vitro total growth inhibition against breast cancer MCF 7 cell lines was reported.; assay type: functional; conditions: Homo sapiens, read-out: Log TGI (converted)
Hs-578T = test: In vitro growth inhibition against breast cancer HS 578T cell line was reported.; assay type: functional; conditions: Homo sapiens
SNB-75 = test: In vitro growth inhibition against CNS cancer SNB-75 cell line was reported.; assay type: functional; conditions: Homo sapiens
OVCAR-8 = test: Log of molar concentration leading to 50% cell death against ovarian cancer OVCAR-8 cell line was reported; assay type: functional; conditions: Homo sapiens, read-out: Log LC50 (the source's name) (converted)
UO-31 = test: In vitro total growth inhibition against renal cancer UO-31 cell lines was reported.; assay type: functional; conditions: Homo sapiens, read-out: Log TGI (converted)
MDA-N [14] = test: In vitro total growth inhibition against breast cancer MDA-N cell lines was reported.; assay type: functional; conditions: Homo sapiens, read-out: Log TGI (converted)
MDA-N [15] = test: In vitro growth inhibition against breast cancer MDA-N cell line was reported.; assay type: functional; conditions: Homo sapiens
SK-MEL-5 = test: Log of molar concentration leading to 50% cell death against melanoma SK-MEL-5 cell line was reported; assay type: functional; conditions: Homo sapiens, read-out: Log LC50 (the source's name) (converted)
CAKI-1 [16] = test: In vitro total growth inhibition against renal cancer CAKI-1cell lines was reported.; assay type: functional; conditions: Homo sapiens, read-out: Log TGI (converted)
SR [17] = test: In vitro total growth inhibition against leukemia SR cell lines was reported.; assay type: functional; conditions: Homo sapiens, read-out: Log TGI (converted)
HCC 2998 [18] = test: In vitro total growth inhibition against colon cancer HCC2998 cell lines was reported.; assay type: functional; conditions: Homo sapiens, read-out: Log TGI (converted)
SR [19] = test: In vitro growth inhibition against leukemia SR cell line was reported.; assay type: functional; conditions: Homo sapiens
SF-295 [20] = test: Log of molar concentration leading to 50% cell death against CNS cancer SF-295 cell line was reported; assay type: functional; conditions: Homo sapiens, read-out: Log LC50 (the source's name) (converted)
UACC-62 [21] = test: Log of molar concentration leading to 50% cell death against melanoma UACC-62 cell line was reported; assay type: functional; conditions: Homo sapiens, read-out: Log LC50 (the source's name) (converted)
HOP-62 = test: In vitro growth inhibition against non-small-cell lung cancer HOP-62 cell line was reported.; assay type: functional; conditions: Homo sapiens
SK-MEL-2 = test: Log of molar concentration leading to 50% cell death against melanoma SK-MEL-2 cell line was reported; assay type: functional; conditions: Homo sapiens, read-out: Log LC50 (the source's name) (converted)
SNB-19 = test: In vitro growth inhibition against CNS cancer SNB-19 cell line was reported.; assay type: functional; conditions: Homo sapiens
ACHN [22] = test: In vitro growth inhibition against renal cancer ACHN cell line was reported.; assay type: functional; conditions: Homo sapiens
MDA-MB-231 = test: Log of molar concentration leading to 50% cell death against breast cancer MDA-MB-231/ATCC cell line was reported; assay type: functional; conditions: Homo sapiens, read-out: Log LC50 (the source's name) (converted)
BT-549 [23] = test: In vitro total growth inhibition against breast cancer BT 549 cell line was reported.; assay type: functional; conditions: Homo sapiens, read-out: Log TGI (converted)
UACC-257 = test: In vitro total growth inhibition against melanoma UACC-257 cell line was reported.; assay type: functional; conditions: Homo sapiens
NCI-H322M = test: In vitro growth inhibition against non-small-cell lung cancer […] cell line was reported.; assay type: functional; conditions: Homo sapiens
SF-539 = test: In vitro total growth inhibition against CNS cancer SF-539 cell lines was reported.; assay type: functional; conditions: Homo sapiens, read-out: Log TGI (converted)
NCI/ADR-RES = test: In vitro growth inhibition against breast cancer NCI/ADR-RES cell line was reported.; assay type: functional; conditions: Homo sapiens
U-251 = test: Log of molar concentration leading to 50% cell death against CNS cancer U251 cell line was reported; assay type: functional; conditions: Homo sapiens, read-out: Log LC50 (the source's name) (converted)
CCRF-CEM [24] = test: In vitro growth inhibition against leukemia CCRF-CEM cell line was reported.; assay type: functional; conditions: Homo sapiens
OVCAR-5 = test: In vitro growth inhibition against ovarian cancer OVCAR-5 cell line was reported.; assay type: functional; conditions: Homo sapiens
MDA-MB-435 [25] = test: In vitro total growth inhibition against breast cancer MDA-MB-435 cell lines was reported.; conditions: Homo sapiens, read-out: Log TGI (converted)
LOX IMVI = test: In vitro growth inhibition against melanoma LOX IMVI cell line was reported.; assay type: functional; conditions: Homo sapiens
NCI-H522 = test: In vitro growth inhibition against non-small-cell lung cancer […] cell line was reported.; assay type: functional; conditions: Homo sapiens
PC-3 = test: In vitro growth inhibition against prostate cancer PC-3 cell line was reported.; assay type: functional; conditions: Homo sapiens
M14 = test: In vitro total growth inhibition against melanoma M14 cell lines was reported.; assay type: functional; conditions: Homo sapiens, read-out: Log TGI (converted)
HCT-116 [26] = test: In vitro total growth inhibition against colon cancer HCT116 cell lines was reported.; assay type: functional; conditions: Homo sapiens, read-out: Log TGI (converted)
NCI-H46 [27] = test: In vitro total growth inhibition against non-small-cell lung cancer […] cell lines was reported.; assay type: functional; conditions: Homo sapiens, read-out: Log TGI (converted)
OVCAR-4 = test: In vitro total growth inhibition against ovarian cancer OVCAR-4 cell lines was reported.; assay type: functional; conditions: Homo sapiens, read-out: Log TGI (converted)
SW-620 = test: In vitro total growth inhibition against colon cancer SW-620 cell lines was reported.; assay type: functional; conditions: Homo sapiens, read-out: Log TGI (converted)

SMILES: Cc1ccc2cccc(NC(=O)c3cc4c(cc3Cl)Sc3nccn3S4(=O)=O)c2n1
- TGI (HOP-92): 67.6 µM
- GI50 (SK-OV-3): 26.9 µM
- GI50 (MDA-MB-435 [1]): 7.94 µM
- TGI (CCRF-CEM [2]): 17 µM
- GI50 (HCT-116 [3]): 4.57 µM
- GI50 (HCC 2998 [4]): 1.82 µM
- TGI (SF-295 [5]): 24.5 µM
- GI50 (DU-145 [6]): 5.5 µM
- TGI (MOLT-4): 20 µM
- TGI (IGROV-1): 6.92 µM
- GI50 (HT-29): 9.55 µM
- CC50 (COLO 205): 55 µM
- TGI (OVCAR-3): 11.5 µM
- TGI (DU-145 [7]): 17.8 µM
- CC50 (EKVX): 77.6 µM
- CC50 (RPMI-8226): 8.51 µM
- GI50 (KM12): 6.61 µM
- TGI (UACC-62 [8]): 30.9 µM
- CC50 (Tumor Cell line): 91.2 µM
- GI50 (BT-549 [9]): 11.5 µM
- GI50 (SF-295 [10]): 11.5 µM
- GI50 (CAKI-1 [11]): 23.4 µM
- TGI (ACHN [12]): 33.9 µM
- CC50 (NCI-H46 [13]): 26.9 µM
- TGI (MCF7): 14.8 µM
- GI50 (Hs-578T): 13.5 µM
- GI50 (SNB-75): 6.92 µM
- CC50 (OVCAR-8): 53.7 µM
- TGI (UO-31): 42.7 µM
- TGI (MDA-N [14]): 91.2 µM
- GI50 (MDA-N [15]): 13.8 µM
- CC50 (SK-MEL-5): 50.1 µM
- TGI (CAKI-1 [16]): 63.1 µM
- TGI (SR [17]): 5.89 µM
- TGI (HCC 2998 [18]): 4.68 µM
- GI50 (SR [19]): 2.24 µM
- CC50 (SF-295 [20]): 53.7 µM
- CC50 (UACC-62 [21]): 67.6 µM
- GI50 (HOP-62): 0.049 µM
- CC50 (SK-MEL-2): 77.6 µM
- GI50 (SNB-19): 10.2 µM
- GI50 (ACHN [22]): 8.51 µM
- CC50 (MDA-MB-231): 49 µM
- TGI (BT-549 [23]): 60.3 µM
- GI50 (UACC-257): 13.8 µM
- GI50 (NCI-H322M): 12 µM
- TGI (SF-539): 4.9 µM
- GI50 (NCI/ADR-RES): 14.5 µM
- CC50 (U-251): 38 µM
- GI50 (CCRF-CEM [24]): 2.51 µM
- GI50 (OVCAR-5): 16.2 µM
- TGI (MDA-MB-435 [25]): 22.9 µM
- GI50 (LOX IMVI): 5.01 µM
- GI50 (NCI-H522): 10.5 µM
- GI50 (PC-3): 2.69 µM
- TGI (M14): 22.9 µM
- TGI (HCT-116 [26]): 17 µM
- TGI (NCI-H46 [27]): 7.76 µM
- TGI (OVCAR-4): 24.5 µM
- TGI (SW-620): 23.4 µM
